Measurements taken from patent US6037348A (priority 1997, dated 2000).

Tested on: influenza virus strain A/Kaw/86

**Q.** With `COC(=O)[C@@]1(C)CCC[C@]2(C)c3cc(OC)ccc3C(=O)C[C@@H]12` [COMPOUND A] as the molecule, how does the “plaque morphology of mutant A2” value read?
**A.** altered plaque morphology
